# Laboratory results: US9566265B2, “Carbazole compounds and therapeutic uses of the compounds” (Incuron, LLC, priority 2008, dated 2017)
# Read-outs that look alike come from different tables or passages of the source.
# What was measured:
# γH2AX = γH2AX staining (Table I); assay type: cell-based
# Topo II [1] = experiment: Topo II inhibition in vitro (Table I); assay type: biochemical
# Chk1/2 = Chk1/2 phosphorylation (Table I); assay type: cell-based
# ATM/ATR = ATM/ATR activation (Table I); assay type: cell-based
# [2] = system: human HT-29 colon adenocarcinoma xenografts
# Procedure: (§1) In this study, the antitumor effect and toxicity of the three carbazoles against HCT-8 and HT29 colon cancer tumors were compared with treatment beginning when the tumor size reached 150-200 mg (about 7 days after tumor transplantation).
# (§2) Eight to twelve-week-old female athymic nude mice (nu/nu, body weight 22-25 g) were obtained from Harlan Sprague Dawley Inc. (Indianapolis, Ind.) and maintained at five mice/cage with water and food ad libitum according to an institutionally approved animal protocol.
# (§3) Human ileocecal adenocarcinoma HCT-8 and colon adenocarcinoma HT-29 xenografts were used. The xenografts were initially established by injecting s.c 10^6 cultured cells and tumors were passed several generations by transplanting about 50 mg non-necrotic tumor (2-3 pieces) via a trocar from the passage tumors when the tumors reach to 1-1.5 g.
# (§4) Treatment was initiated 7 days after tumor transplantation when the tumors reached 150-200 mg. The mice in the control group received the vehicle (0.2% hydroxypropylmethylcellulose) at 200 μl per 20 g mouse body weight (same as the treatment groups). Five mice were used for each experimental group with 10 tumors (1 tumor each in the left and right side flanks).
# (§5) Two axes (mm) of tumor (L, longest axis; W, shortest axis) were measured with the aid of a Vernier caliper. Tumor weight (mg) was estimated using a formula: tumor weight=½ (L×W2). Tumor measurements were taken daily at the same time as drug treatment and 3-4 times a week of post therapy.
# (§6) The kinetics of drug-induced toxicities (body weight loss, diarrhea, and lethality) were determined daily for the first 10 days after treatment and every two days thereafter.
# (§7) Antitumor activity was assessed by maximum tumor growth inhibition (MTRI) which is the mean tumor weight of treated group (MTWTG) compared with untreated control group (MTWCG) at the same time point (MTRI=MTWTG−MTWCG)÷MTWCG×100%). The tumor doubling time (TDT) was defined as the mean time for the tumor to reach twice its initial weight. Tumor response was expressed as partial tumor response (PR) when tumor weight was reduced at least 50% of the initial tumor size and complete tumor response (CR) was defined as the inability to detect tumor upon palpation at the initial site of tumor appearance.
# [3] = system: HCT-116, DLD1, Caki1 and MDA-MB-231 tumors; experiment: various human tumour xenografts sc; assay type: in vivo, nude or SCID mice; conditions: tumor cells inoculated as a cell suspension
# Procedure: as §1
# [4] = system: human HCT-8 ileocecal adenocarcinoma xenografts
# Procedure: as §1, §2, §3, §4, §5, §6, §7
# Bacillus subtilis = experiment: antibacterial cytotoxicity assay, gram(+) bacteria (OD600); assay type: cell-based; conditions: B. subtilis, 48 hours, over a range of potencies; FIG. 13B
# Procedure: In vitro test to evaluate the effect of carbazole compounds on gram(-) and gram(+) bacteria. Two days prior to the start of the cytotoxicity assay, inoculate DH5-α and B. subtilis into 1 ml of corresponding media from glycerol stocks. Allow to grow during the course of the day at 37° C. with shaking. Streak each bacteria on the appropriate agar plates using a sterile inoculation loop and allow to grow overnight at 37° C. in the bacteria incubator. Using a sterile inoculation loop, pick a single colony of bacteria and inoculate 5 ml of the corresponding media in a 14 ml snap cap tube. Grow overnight ( 16 h) at 37° C. with shaking. […] Dilute 5 ml cultures of DH5-α and B. subtilis to an OD600 nm of 0.002, which corresponds to about 2×10^6 cells/ml in a volume sufficient for the experiment (dependent on the number of plates). Plate out 50 μl into each well of X 96-well plates (X=# plates needed for a given experiment). […] Chemicals for testing are prepared by dilution of stock solutions in LB Broth or Nutrient Broth for DH5-α and B. subtilis studies, respectively. Cells are treated with the final chemical concentrations presented in the scheme below (Table 2). Stock solutions are made up in DMSO. […] However, this concentration is dependent on the solubility of a given chemical and actual stock concentrations must be noted at time of experiment. Each library chemical to be tested requires 2 rows of a 96-well plate, thus 4 chemicals ([…]) can be tested in one plate simultaneously. In addition to test chemicals, each plate should include positive and negative controls. As positive control, ampicillin is used at 100 μg/ml. […] Dilutions of chemicals to be added to the plate are made up as 2× concentrations in appropriate bacteria media and added to corresponding wells in a volume of 50 μl. […] This process is repeated until all 10 2× doses are prepared. […] Following the addition of carbazole compounds to 96-well plates containing bacteria, plates are transferred to the 37° C. bacteria incubator for 48 hours. After the incubation, the OD600 mm for each well of the 96-well plates will be measured. […] The % DMSO control is plotted vs compound concentration to generate sigmoid shaped curves. After three runs are complete, the raw data for all three runs is used for IC50 calculations.
# HB 101 E. coli = experiment: antibacterial cytotoxicity assay, gram(−) bacteria (OD600); assay type: cell-based; conditions: 48 hours, over a range of potencies, FIG. 13A
# in vivo = conditions: nude, mouse, po
# Procedure: Drug doses and schedule. […] Treatment was initiated 7 days after tumor transplantation when the tumors reached 150-200 mg. The mice in the control group received the vehicle (0.2% hydroxypropylmethylcellulose) at 200 μl per 20 g mouse body weight (same as the treatment groups). Five mice were used for each experimental group with 10 tumors (1 tumor each in the left and right side flanks).
# Maximum Tolerated Dose (MTD) and toxicity evaluation. […] The kinetics of drug-induced toxicities (body weight loss, diarrhea, and lethality) were determined daily for the first 10 days after treatment and every two days thereafter.
# [5] = system: Caki1 human renal cell carcinoma cells; experiment: Caki1 renal cell carcinoma xenograft efficacy test
# Procedure: In an efficacy test using these three compounds, athymic nude mice were inoculated subcutaneously with a suspension of Caki1 human renal cell carcinoma cells into both rear flanks. When at least one tumor in a mouse reached 20-50 mm^3, treatment was commenced. […] As a positive control, one group was treated with 40 mg/kg Sunitinib, an approved drug for the treatment of renal cell carcinoma. Treatment was given for 4 weeks on a 5 day on/2 day off schedule. After treatment was completed, mice were monitored for an additional 4 weeks to determine how quickly tumor growth returned to normal.
# p53 = p53 activation assay, p53 responsive luciferase reporter cell line; assay type: cell-based, human; conditions: Homo sapiens
# Procedure: The potency of a present carbazole compound is determined by measuring an ability of the compound to inhibit NF-κB activity or to activate p53. […] Theoretically, such assays of the dose-response effect of activator compounds can be described as a sigmoidal curve expressing a degree of activation as a function of concentration. The curve also theoretically passes through a point at which the concentration is sufficient to increase activity to a level that is 50% that of the difference between a baseline and the maximal activity in the assay. […] Determination of an EC50 value is made using conventional biochemical (acellular) assay techniques or cell-based assay techniques.
# The potency of a carbazole compound is determined by measuring an ability of the compound to activate p53.
# The p53 activation assay for determination of the EC50 value was performed as follows:
# HT1080-L (human fibrosarcoma cells with ConALuc reporter)
# RCC45ConALuc (human renal cell carcinoma cell line with ConALuc reporter)
# 1. Two types of standard cells were used, either HT1080-L or RCC45ConALuc cells. Both cell lines stably express a p53 responsive luciferase reporter construct.
# 2. HT1080-L cells were grown in DMEM medium containing 10% FBS. RCC45ConALuc cells were grown in RPMI medium containing 10% FBS (Pen/Strep can be added to a final concentration of 1%, if desired). Both cell lines were grown in a humidified incubator at 37° C. with 5% CO2. For normal culturing, both cell lines were split using 1× trypsin-EDTA at a ratio of 1:20 for HT1080-L and 1:5 for RCC45ConALuc cells every 3-4 days (when cells are 80-90% confluent).
# 3. A day before the experiment, the cells are trypsinized for about 5 minutes in 1× tripsin/EDTA solution in 37° C. incubator and plated in 96 well plates. HT1080-L cells were seeded at a density of 1×10^4/well in standard DMEM medium in a volume of 50 μl. RCC45ConALuc were seeded at a density of 2×10^4/well in the volume of 50 uL in standard RPMI medium.
# 4. The next day, various carbazole compounds were prepared by dilution of stock solutions in standard DMEM medium such that the cells were treated with the final chemical concentrations in Table 1 below. Stock solutions were made up in DMSO. Typically, chemicals were made up as 20 mM stock solutions.
# 5. Each tested compound used two rows of a 96-well plate, thus four compounds (e.g., W, X, Y, Z) were tested in one plate simultaneously. In addition to test compounds, each plate included positive and negative controls. As positive control, 9aa was used at a dose of 3 μM. As a negative control, DMSO was used in final concentration 0.1%.
# 1. Dilutions of chemicals added to the plate were made up as 2× concentrations in standard DMEM and added to corresponding well in a volume of 50 μl.
# 2. Chemicals were diluted in standard DMEM by two time serial dilutions starting from 40 μM (2× of highest concentration, e.g., 20 μM). For one cell line, the minimum volume was 125 μL of 2× working solution of chemical of each concentration in standard DMEM.
# 4. Sixteen hours following compound addition, all wells with the highest concentrations of compounds are checked microscopically for the presence of toxic effect, because death of cells caused by compounds may not allow detecting luciferase activity. If cytotoxocity is evident, other doses of the same compounds were checked for the presence of toxicity. The lowest dose causing toxic effect was recorded.
# 5. After microscopic examination, 15 μl of Bright Glo luciferase assay system were added to each well and after 5 min incubation at RT, the plates were read on a 96 well plate luminometer with a measurement time of 0.1 sec. A shaking step was included before measurement.
# 6. The folds of luciferase activation for each concentration of each chemical were calculated by dividing the detected luciferase activity at each chemical concentration by the average of the luciferase activity for the DMSO control on the same plate.
# Bloodstream T. brucei = experiment: T. brucei bloodstream form in vitro killing; assay type: cell-based, Trypanosoma brucei
# Procedure: Preliminary T. brucei inactivation experiments were performed in vitro. The life cycle of T. brucei involves a “procyclic” developmental stage in a tsetse fly, and a “bloodstream” form in humans. All studies were performed with the bloodstream stage of the parasite, because it is the disease-causing developmental stage.
# Suramin, a conventional anti-HAT drug, was used as a positive control.
# Bloodstream T. brucei was seeded (3×10^3 cells/mL) in 24-well (500 uL of the media per well) plate. […] Control cultures received equal volumes of DMSO.
# bacteria = experiment: antibacterial cytotoxicity assay, comparison with ampicillin control; assay type: cell-based
# Procedure: In particular, the effect of carbazole compounds of the present invention on gram positive (Bacillus subtilis) and gram negative (DH5-α) bacteria was determined by the following procedure, and is summarized in FIGS. 13A and 13B.
# Each library chemical to be tested requires 2 rows of a 96-well plate, thus 4 chemicals (e.g. W, X, Y, Z) can be tested in one plate simultaneously. In addition to test chemicals, each plate should include positive and negative controls. As positive control, ampicillin is used at 100 μg/ml. As a negative control, DMSO is used in an amount equal to the highest volume of test compound used (˜0.25% DMSO for 50 μM).
# Besides a positive control added in one concentration on each plate, the positive control of ampicillin is added to each assay run in a full concentration range (3 fold dilutions) to ensure proper and robust assay performance (estimated by comparison of dose response curves among runs).
# The average OD600 nm of the test compound solutions are compared to that of the DMSO control by dividing the average OD600 nm of the test solution by that of the DMSO control and multiplying by 100 to produce the % DMSO control (i.e. % cytotoxicity). The % DMSO control is plotted vs compound concentration to generate sigmoid shaped curves. After three runs are complete, the raw data for all three runs is used for IC50 calculations.
# [6] = system: Plasmodium falciparum (strain D10); experiment: Plasmodium falciparum in vitro culture, infected erythrocytes; assay type: cell-based; conditions: tested at 29, 57, 143 nM or 143 nM only; FIG. 12
# Procedure: In particular, the effect of carbazole compounds on the malaria parasite was tested by culturing Plasmodium falciparum (strain D10) in vitro in the presence or absence of test compounds.
# In each experiment, 1000 erythrocytes were assessed microscopically to determine the number of infected cells.
# Topo II [7] = experiment: Topo II inhibition in cells (Table I); assay type: cell-based
# [8] = p.o. at MTD, 5 days on/2 days off per week, Example 15 5, Example 7 30, Example 13 25 mg/kg/d
# [9] = 16 h, HT1080-L or RCC45ConALuc reporter cells, 16 h, read-out: EC50 value (p53 activation)
compound,measurement,setting,value
"CCN(CC)CCn1c2ccc3c(c2c2c4c(ccc21)C(=O)CC4)CCC3=O.Cl [Example 3, 6-[2-(Diethylamino)ethyl]-10,11-dihydro-1H-dicyclopenta[c,g]carbazole-3,9(2H,6H)-dione hydrochloride]",γH2AX staining,γH2AX,no
same,Ames test,Ames test,negative
same,Topo II inhibition in vitro,Topo II [1],ligation
same,Chk1/2 phospho,Chk1/2,no
same,ATM/ATR activation,ATM/ATR,no
CCCNCCCn1c2ccc(C(C)=O)cc2c2c3c(ccc21)C(=O)CC3 [Example 13],delay of tumor growth (control double time 7.8 days),[2],50%
same,inhibitory rate / tumor growth inhibition,[2],48%
same,Antitumor Activity MTGI (%),[2]; [8],47.6 ± 6.7%
same,Toxicity (%) lethality,[2]; same,0%
same,CR (%),"[2]; same, complete tumor response",0%
same,Toxicity (%) MWL,"[2]; same, maximum weight loss of pretreatment body weight",4.4 ± 2.2%
same,PR (%),"[2]; same, partial tumor response",0%
same,Antitumor Activity TDT,"[2]; same, tumor doubling time",11.7 ± 1.2 days
same,antitumor efficacy,[3],antitumor efficacy
same,Toxicity (%) MWL,"[4]; mouse, in vivo",8.5 ± 2.9%
same,Antitumor Activity MTGI (%),[4]; [8],35.7 ± 20.0%
same,Toxicity (%) lethality,[4]; same,0%
same,CR (%),"[4]; same, complete tumor response",0%
same,PR (%),"[4]; same, partial tumor response",0%
same,Antitumor Activity TDT,"[4]; same, tumor doubling time",5.6 ± 1.2 days
same,delay of tumor growth compared to the vehicle control (double time 4.8 days),[4]; text b677,17%
same,antibacterial effect,Bacillus subtilis,antibacterial effect
same,antibacterial effect,HB 101 E. coli,antibacterial effect
same,MTD at 4 weeks,in vivo,25 mg/kg/day
same,tumor growth inhibition compared to the vehicle control,"[5]; Day 24 (end of treatment), oral gavage 5 day on/2 day off, Example 7 30, Example 15 5, Example 13 25, Sunitinib 40 mg/kg",62%
same,side effects,"[5]; oral, 4 weeks 5 day on/2 day off",severest side effects
same,EC50,p53; [9],0.22 µM
same,elimination of parasites,"Bloodstream T. brucei; 48 hrs, up to 200 nM Example 7, 20 nM Example 13, 3 nM Example 15",completely eliminated T. brucei
same,IC50,"Bloodstream T. brucei; Trypanosoma brucei, read-out: IC50 (concentration that killed 50% of the parasites), bloodstream stage, 48 hrs of culture",6 to 11 nM
CC(C)NCCn1c2ccc3c(c2c2c4c(ccc21)C(=O)CC4)CCC3=O [Example 17],effectiveness against bacteria compared with the ampicillin control,bacteria,more effective
same,antibacterial effect,Bacillus subtilis,antibacterial effect
same,antibacterial effect,HB 101 E. coli,antibacterial effect
same,EC50,p53; [9],0.04 µM
CCNCCCn1c2ccc3c(c2c2c4c(ccc21)C(=O)CC4)CCC3=O.Cl [Example 18],"anti-malarial activity, parasitemia reduction",[6],anti-malarial activity comparable to quinacrine
same,antibacterial effect,Bacillus subtilis,antibacterial effect
same,antibacterial effect,HB 101 E. coli,antibacterial effect
same,EC50,p53; [9],0.09 µM
same,EC50,"p53; Table 3, test compounds of the malaria experiment, read-out: EC50, μM (p53 activation assay)",0.09 µM
COc1cccc2c1C(=O)c1c(O)c3c(c(O)c1C2=O)C[C@@](O)(C(=O)CO)C[C@@H]3O[C@H]1C[C@H](N)[C@H](O)[C@H](C)O1 [doxorubicin],γH2AX staining,γH2AX,yes
same,Ames test,Ames test,negative
same,Topo II inhibition in vitro,Topo II [1],relegation
same,Chk1/2 phospho,Chk1/2,yes
same,ATM/ATR activation,ATM/ATR,yes
same,Topo II inhibition in cells,Topo II [7],yes
